In patent US5728710A, “Rapamycin derivatives” (SmithKline Beecham Corporation, priority 1995, dated 1998):
Like-named read-outs stand apart in the source and are kept apart here.

Assays:
[1] = test system: Spleen cells from BDF1 female mice; assay: Mitogenesis Assay for Immunosuppressive Activity (concanavalin A, 3H-thymidine); type: cell-based; conditions: read-out: Mitogenesis IC50
Procedure: Spleen cells from BDF1 female mice were established in RPMI with 10% fetal calf serum at 5×10^6 /mL. One hundred […] of this suspension (5×10^5 cells) were dispensed into 96-well round-bottomed microtiter plates (Linbro, Flow Laboratories). Concanavalin A (5 μg/ml) was added as the mitogenic stimulus, and the final volume in the microtiter wells was adjusted to 200 μL with RPMI. Cell cultures were incubated for 72 hours at 37° C. in a 5% CO2 atmosphere and pulsed with 0.5 μCi ^3 H-thymidine (specific activity […]) for the last 18 hours of the 72 hour culture. The cells were harvested on an automated multiple sample harvester and cell-associated radioactivity counted in a Beckman liquid scintillation counter. The results are expressed as the mean values derived from quadruplicate measurements. Cell viability was determined by trypan blue exclusion after 72 hours of incubation. Compounds to be tested were added to the microtiter plates at the appropriate dilutions prior to the addition of cells.

[2] = test system: Saccharomyces cerevisiae; assay: Assay for Antifungal Activity (agar well zone of inhibition); type: cell-based; conditions: zones of inhibition after 48 hours, YPD agar
Procedure: Yeast organism (Saccharomyces cerevisiae) in logarithmic growth were plated on complete agar medium (YPD). Compounds dissolved in an appropriate aqueous or organic solvent were placed in wells punched in the agar. Plates were incubated for 48 hours and zones of inhibition were measured.

[3] = Concanavalin A 5 μg/ml, 72 hours at 37° C., 3H-thimidine uptake last 18 hours
[4] = Mus musculus, Concanavalin A 5 μg/ml, 72 hours at 37° C., 3H-thimidine uptake last 18 hours

Molecule	IC50 [1, 4]	also measured
7-Demethoxy-7 (S)-(2' 4'-dimethoxyphenyl)-rapamycin [Example 15]	–	IC50 [1, 3]: < 500 nM; Antifungal IC12 [2]: < 500 ng/mL
CO[C@@H]1C[C@H](C[C@@H](C)[C@@H]2CC(=O)[C@H](C)/C=C(\C)[C@@H](O)[C@@H](OC)C(=O)[C@H](C)C[C@H](C)/C=C/C=C/C=C(\C)[C@H](OC(C)=O)C[C@@H]3CC[C@@H](C)[C@@](O)(O3)C(=O)C(=O)N3CCCC[C@H]3C(=O)O2)CC[C@H]1O [Example 6, 7-Demethoxy-7(R)-acetoxyrapamycin]	< 500 nM	–
CO[C@@H]1C[C@H](C[C@@H](C)[C@@H]2CC(=O)[C@H](C)/C=C(\C)[C@@H](O)[C@@H](OC)C(=O)[C@H](C)C[C@H](C)/C=C/C=C/C=C(\C)[C@@H](c3ccco3)C[C@@H]3CC[C@@H](C)[C@@](O)(O3)C(=O)C(=O)N3CCCC[C@H]3C(=O)O2)CC[C@H]1O [Example 7, 7-Demethoxy-7(S)-(2'-furanyl)rapamycin]	< 500 nM	–
CO[C@@H]1C[C@H](C[C@@H](C)[C@@H]2CC(=O)[C@H](C)/C=C(\C)[C@@H](O)[C@@H](OC)C(=O)[C@H](C)C[C@H](C)/C=C/C=C/C=C(\C)[C@H](OCCO)C[C@@H]3CC[C@@H](C)[C@@](O)(O3)C(=O)C(=O)N3CCCC[C@H]3C(=O)O2)CC[C@H]1O [Example 5, 7-Demethoxy-7(R)-(2-hydroxyethoxy)rapamycin]	< 500 nM	–
CO[C@@H]1C[C@H](C[C@@H](C)[C@@H]2CC(=O)[C@H](C)/C=C(\C)[C@@H](O)[C@@H](OC)C(=O)[C@H](C)C[C@H](C)/C=C/C=C/C=C(\C)CC[C@@H]3CC[C@@H](C)[C@@](O)(O3)C(=O)C(=O)N3CCCC[C@H]3C(=O)O2)CC[C@H]1O [Example 8, 7-Demethoxyrapamycin]	< 500 nM	–
CO[C@@H]1C[C@@H]2CC[C@@H](C)[C@@](O)(O2)C(=O)C(=O)N2CCCC[C@H]2C(=O)O[C@H]([C@H](C)C[C@@H]2CC[C@@H](O)[C@H](OC)C2)CC(=O)[C@H](C)/C=C(\C)[C@@H](O)[C@@H](OC)C(=O)[C@H](C)C[C@H](C)/C=C/C=C/C=C/1C [Example 20, 7-Epirapamycin]	–	IC50 ([1]; Mus musculus): < 500 nM
CO[C@@H]1C[C@H](C[C@@H](C)[C@@H]2CC(=O)[C@H](C)/C=C(\C)[C@@H](O)[C@@H](OC)C(=O)[C@H](C)C[C@H](C)/C=C/C=C/C=C(\C)[C@@H](Sc3ccccc3)C[C@@H]3CC[C@@H](C)[C@@](O)(O3)C(=O)C(=O)N3CCCC[C@H]3C(=O)O2)CC[C@H]1O [Example 11, 7-Demethoxy-7 (S)-phenylthiorapamycin]	< 500 nM	–
COc1ccc(C2CC3CCC(C)C(O)(O3)C(=O)C(=O)N3CCCCC3C(=O)OC(C(C)CC3CCC(O)C(OC)C3)CC(=O)C(C)C=C(C)C(O)C(OC)C(=O)C(C)CC(C)C=CC=CC=C2C)c(OC)c1 [Example 16, 7-Demethoxy-7 (R)-2',4'-dimethoxyphenyl)-rapamycin]	–	IC50 [1, 3]: < 1000 nM; Antifungal IC12 [2]: < 500 ng/mL
CO[C@@H]1C[C@H](C[C@@H](C)[C@@H]2CC(=O)[C@H](C)/C=C(\C)[C@@H](O)[C@@H](OC)C(=O)[C@H](C)C[C@H](C)/C=C/C=C/C=C(\C)[C@H](c3ccco3)C[C@@H]3CC[C@@H](C)[C@@](O)(O3)C(=O)C(=O)N3CCCC[C@H]3C(=O)O2)CC[C@H]1O [Example 14, 7-Demethoxy-7(R)-(2'-furanyl)rapamycin]	< 500 nM	–
C=CC[C@H]1C[C@@H]2CC[C@@H](C)[C@@](O)(O2)C(=O)C(=O)N2CCCC[C@H]2C(=O)O[C@H]([C@H](C)C[C@@H]2CC[C@@H](O)[C@H](OC)C2)CC(=O)[C@H](C)/C=C(\C)[C@@H](O)[C@@H](OC)C(=O)[C@H](C)C[C@H](C)/C=C/C=C/C=C/1C [Example 13, 7-Demethoxy-7(S)-allylrapamycin]	< 500 nM	–
CO[C@@H]1C[C@H](C[C@@H](C)[C@@H]2CC(=O)[C@H](C)/C=C(\C)[C@@H](O)[C@@H](OC)C(=O)[C@H](C)C[C@H](C)/C=C/C=C/C=C(\C)[C@H](SC)C[C@@H]3CC[C@@H](C)[C@@](O)(O3)C(=O)C(=O)N3CCCC[C@H]3C(=O)O2)CC[C@H]1O [Example 10, 7-Demethoxy-7(R)-methylthiorapamycin]	< 500 nM	–
COc1ccc(CO[C@H]2C[C@@H]3CC[C@@H](C)[C@@](O)(O3)C(=O)C(=O)N3CCCC[C@H]3C(=O)O[C@H]([C@H](C)C[C@@H]3CC[C@@H](O)[C@H](OC)C3)CC(=O)[C@H](C)/C=C(\C)[C@@H](O)[C@@H](OC)C(=O)[C@H](C)C[C@H](C)/C=C/C=C/C=C/2C)cc1OC [Example 3, 7-Demethoxy-7(S)-(3,4-dimethoxybenzyloxy)rapamycin]	< 500 nM	–
CO[C@@H]1C[C@H](C[C@@H](C)[C@@H]2CC(=O)[C@H](C)/C=C(\C)[C@@H](O)[C@@H](OC)C(=O)[C@H](C)C[C@H](C)/C=C/C=C/C=C(\C)[C@@H](SC)C[C@@H]3CC[C@@H](C)[C@@](O)(O3)C(=O)C(=O)N3CCCC[C@H]3C(=O)O2)CC[C@H]1O [Example 9, 7-Demethoxy-7(S)-methylthiorapamycin]	< 500 nM	–
CO[C@@H]1C[C@H](C[C@@H](C)[C@@H]2CC(=O)[C@H](C)/C=C(\C)[C@@H](O)[C@@H](OC)C(=O)[C@H](C)C[C@H](C)/C=C/C=C/C=C(\C)[C@@H](OCCO)C[C@@H]3CC[C@@H](C)[C@@](O)(O3)C(=O)C(=O)N3CCCC[C@H]3C(=O)O2)CC[C@H]1O [Example 4, 7-Demethoxy-7(S)-(2-hydroxyethoxy)rapamycin]	< 500 nM	–
CCO[C@@H]1C[C@@H]2CC[C@@H](C)[C@@](O)(O2)C(=O)C(=O)N2CCCC[C@H]2C(=O)O[C@H]([C@H](C)C[C@@H]2CC[C@@H](O)[C@H](OC)C2)CC(=O)[C@H](C)/C=C(\C)[C@@H](O)[C@@H](OC)C(=O)[C@H](C)C[C@H](C)/C=C/C=C/C=C/1C [Example 2, 7-Demethoxy-7(R)-ethoxyrapamycin]	< 500 nM	–
CO[C@@H]1C[C@H](C[C@@H](C)[C@@H]2CC(=O)[C@H](C)/C=C(\C)[C@@H](O)[C@@H](OC)C(=O)[C@H](C)C[C@H](C)/C=C/C=C/C=C(\C)[C@@H](O)C[C@@H]3CC[C@@H](C)[C@@](O)(O3)C(=O)C(=O)N3CCCC[C@H]3C(=O)O2)CC[C@H]1O [Example 18, 7-O-Demethylrapamycin]	< 500 nM	–
CO[C@@H]1C[C@H](C[C@@H](C)[C@@H]2CC(=O)[C@H](C)/C=C(\C)[C@@H](O)[C@@H](OC)C(=O)[C@H](C)C[C@H](C)/C=C/C=C/C=C(\C)[C@H](O)C[C@@H]3CC[C@@H](C)[C@@](O)(O3)C(=O)C(=O)N3CCCC[C@H]3C(=O)O2)CC[C@H]1O [Example 19, 7-O-Demethyl-7-Epirapamycin]	< 500 nM	–
CO[C@@H]1C[C@H](C[C@@H](C)[C@@H]2CC(=O)[C@H](C)/C=C(\C)[C@@H](O)[C@@H](OC)C(=O)[C@H](C)C[C@H](C)/C=C/C=C/C=C(\C)C(=O)C[C@@H]3CC[C@@H](C)[C@@](O)(O3)C(=O)C(=O)N3CCCC[C@H]3C(=O)O2)CC[C@H]1O [Example 17, 7-Demethoxy-7-Oxorapamycin]	< 500 nM	–
CCO[C@H]1C[C@@H]2CC[C@@H](C)[C@@](O)(O2)C(=O)C(=O)N2CCCC[C@H]2C(=O)O[C@H]([C@H](C)C[C@@H]2CC[C@@H](O)[C@H](OC)C2)CC(=O)[C@H](C)/C=C(\C)[C@@H](O)[C@@H](OC)C(=O)[C@H](C)C[C@H](C)/C=C/C=C/C=C/1C [Example 1, 7-Demethoxy-7(S)-ethoxyrapamycin]	< 500 nM	–
